The results in this text go back to paper PMC5862592, “CDK8/19 inhibition induces premature G1/S transition and ATR-dependent cell death in prostate cancer cells” (Oncotarget, 2018).

Common to all, as to experiment: biochemical
Parameters in all cases: KINOMEscan active site-directed competition binding assay (DiscoveRx), 456 kinases, per cent of control at 300 nM
What all share (details): read-out: Percent of Control (%)

One assay addresses T1, MEK2 (Homo sapiens, UniProt P36507).
T1 construct: gene MAP2K2
The procedure, abridged: (§1)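 Kinase panel (456 enzymes) profiled by competitive displacement at the active site; compounds run at 300 nmol/L.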

The target in another assay is BMX (Homo sapiens, UniProt P51813). An outline of the steps:
as §1

Assay [1] addresses T2, ABL1(Q252H)-nonphosphorylated (Homo sapiens, UniProt P00519, Q252H).
T2 construct: nonphosphorylated
The procedure, abridged:
as §1

Another assay addresses T3, JNK2 (Homo sapiens, UniProt P45984).
T3 construct: gene MAPK9
An outline of the steps:
as §1

For the next assay, the target named is GSK3B (Homo sapiens, UniProt P49841). An outline of the steps:
as §1

Another assay deals with PKNB(M.tuberculosis) (Mycobacterium tuberculosis, UniProt P9WI81). The procedure, abridged: as §1
The target of a further assay is EGFR(L858R,T790M) (Homo sapiens, UniProt P00533, L858R/T790M). The procedure, abridged:
as §1

Another assay concerns the target FYN (Homo sapiens, UniProt P06241). The procedure, abridged:
as §1

The target in another assay is BTK (Homo sapiens, UniProt Q06187). The procedure, abridged: as §1
Another assay concerns the target T4, IKK-epsilon (Homo sapiens, UniProt Q14164).
T4 construct: gene IKBKE
An outline of the steps: as §1

The target of another assay is ABL2 (Homo sapiens, UniProt P42684). The procedure, abridged:
as §1

Another assay concerns the target MYLK4 (Homo sapiens, UniProt Q86YV6). The procedure, abridged:
as §1

The next assay has as its target T5, PCTK3 (Homo sapiens, UniProt Q07002).
T5 construct: gene CDK18
The procedure, abridged:
as §1

For the next assay, the target named is CSNK1E (Homo sapiens, UniProt P49674). The procedure, abridged:
as §1

In the next assay the target is T6, MEK6 (Homo sapiens, UniProt P52564).
T6 construct: gene MAP2K6
The procedure, abridged: as §1

A further assay addresses T7, DCAMKL2 (Homo sapiens, UniProt Q8N568).
T7 construct: gene DCLK2
An outline of the steps:
as §1

Another assay has as its target PIK3CG (Homo sapiens, UniProt P48736). The procedure, abridged:
as §1

In another assay the target is T8, IKK-alpha (Homo sapiens, UniProt O15111).
T8 construct: gene CHUK
The procedure, abridged:
as §1

For the next assay, the target named is FLT1 (Homo sapiens, UniProt P17948). An outline of the steps:
as §1

A further assay addresses TRPM6 (Homo sapiens, UniProt Q9BX84). An outline of the steps: as §1
Another assay deals with EPHA7 (Homo sapiens, UniProt Q15375). An outline of the steps:
as §1

The next assay has as its target MAP3K4 (Homo sapiens, UniProt Q9Y6R4). The procedure, abridged: as §1

The structures appear in SMILES notation. Where two headings read alike, the source gives them in different places.

Sequence of FYN (P06241 whole entry): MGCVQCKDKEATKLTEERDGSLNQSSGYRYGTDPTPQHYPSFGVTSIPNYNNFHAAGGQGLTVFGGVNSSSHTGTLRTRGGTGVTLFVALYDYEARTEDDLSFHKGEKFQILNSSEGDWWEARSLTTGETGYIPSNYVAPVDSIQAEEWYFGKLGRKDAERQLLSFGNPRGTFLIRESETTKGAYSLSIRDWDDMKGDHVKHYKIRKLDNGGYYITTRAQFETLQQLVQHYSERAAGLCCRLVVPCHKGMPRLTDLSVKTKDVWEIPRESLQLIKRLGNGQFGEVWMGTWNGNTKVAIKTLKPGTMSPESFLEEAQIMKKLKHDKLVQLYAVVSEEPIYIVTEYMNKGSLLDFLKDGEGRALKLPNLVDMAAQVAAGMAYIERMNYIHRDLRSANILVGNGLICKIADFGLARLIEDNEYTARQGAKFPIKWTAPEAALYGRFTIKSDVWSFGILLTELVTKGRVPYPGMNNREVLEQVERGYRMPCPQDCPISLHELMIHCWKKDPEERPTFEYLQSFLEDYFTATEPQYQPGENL
T6 sequence (P52564 whole entry): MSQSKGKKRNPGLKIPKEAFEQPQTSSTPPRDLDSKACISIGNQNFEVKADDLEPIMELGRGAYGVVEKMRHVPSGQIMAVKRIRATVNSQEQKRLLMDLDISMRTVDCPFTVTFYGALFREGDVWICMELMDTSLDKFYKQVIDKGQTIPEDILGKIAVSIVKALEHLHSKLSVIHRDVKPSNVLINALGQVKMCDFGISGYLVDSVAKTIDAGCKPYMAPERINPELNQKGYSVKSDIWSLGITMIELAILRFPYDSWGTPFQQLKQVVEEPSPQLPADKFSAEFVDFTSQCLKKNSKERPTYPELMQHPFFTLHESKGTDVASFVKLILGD
T3 sequence (P45984 whole entry): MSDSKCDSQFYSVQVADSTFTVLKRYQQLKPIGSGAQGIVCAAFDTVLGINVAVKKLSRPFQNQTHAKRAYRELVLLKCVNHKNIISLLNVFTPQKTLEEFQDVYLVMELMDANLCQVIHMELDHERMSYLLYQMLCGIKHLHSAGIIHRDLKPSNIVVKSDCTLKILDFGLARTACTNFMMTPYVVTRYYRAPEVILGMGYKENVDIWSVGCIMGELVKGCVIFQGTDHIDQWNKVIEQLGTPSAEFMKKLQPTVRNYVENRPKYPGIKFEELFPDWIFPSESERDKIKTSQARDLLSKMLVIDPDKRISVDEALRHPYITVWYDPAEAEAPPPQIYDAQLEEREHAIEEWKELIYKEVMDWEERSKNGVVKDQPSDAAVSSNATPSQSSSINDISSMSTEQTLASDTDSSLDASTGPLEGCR
Sequence of PIK3CG (P48736 whole entry): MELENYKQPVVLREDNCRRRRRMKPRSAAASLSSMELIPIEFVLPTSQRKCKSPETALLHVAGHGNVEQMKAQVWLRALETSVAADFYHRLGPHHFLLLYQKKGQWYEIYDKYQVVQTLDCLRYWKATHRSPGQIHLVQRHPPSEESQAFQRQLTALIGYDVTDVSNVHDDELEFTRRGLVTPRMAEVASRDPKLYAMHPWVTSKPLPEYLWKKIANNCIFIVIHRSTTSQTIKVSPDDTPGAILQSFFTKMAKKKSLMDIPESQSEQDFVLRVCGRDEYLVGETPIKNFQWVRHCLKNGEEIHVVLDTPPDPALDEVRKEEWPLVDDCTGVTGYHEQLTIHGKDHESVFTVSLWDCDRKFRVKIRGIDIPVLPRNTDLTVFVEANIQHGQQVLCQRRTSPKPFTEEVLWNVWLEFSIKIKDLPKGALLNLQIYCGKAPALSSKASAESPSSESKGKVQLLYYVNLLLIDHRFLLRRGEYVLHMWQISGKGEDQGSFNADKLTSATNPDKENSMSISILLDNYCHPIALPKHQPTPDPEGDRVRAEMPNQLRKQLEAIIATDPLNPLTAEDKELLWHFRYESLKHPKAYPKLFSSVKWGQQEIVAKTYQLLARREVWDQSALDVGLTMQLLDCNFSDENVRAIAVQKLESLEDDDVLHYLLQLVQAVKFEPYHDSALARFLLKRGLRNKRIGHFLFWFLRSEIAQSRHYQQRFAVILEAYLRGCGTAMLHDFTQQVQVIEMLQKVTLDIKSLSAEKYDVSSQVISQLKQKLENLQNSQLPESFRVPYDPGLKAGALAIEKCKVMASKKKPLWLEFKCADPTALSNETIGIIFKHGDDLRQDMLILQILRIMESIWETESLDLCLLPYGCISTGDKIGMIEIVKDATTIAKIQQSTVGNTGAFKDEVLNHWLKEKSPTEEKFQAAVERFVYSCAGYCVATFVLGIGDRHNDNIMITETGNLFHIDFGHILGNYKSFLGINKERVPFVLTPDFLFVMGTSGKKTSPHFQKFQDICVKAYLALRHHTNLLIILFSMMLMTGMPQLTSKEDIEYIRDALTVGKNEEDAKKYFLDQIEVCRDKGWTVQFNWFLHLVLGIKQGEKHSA
Sequence of CSNK1E (P49674 whole entry): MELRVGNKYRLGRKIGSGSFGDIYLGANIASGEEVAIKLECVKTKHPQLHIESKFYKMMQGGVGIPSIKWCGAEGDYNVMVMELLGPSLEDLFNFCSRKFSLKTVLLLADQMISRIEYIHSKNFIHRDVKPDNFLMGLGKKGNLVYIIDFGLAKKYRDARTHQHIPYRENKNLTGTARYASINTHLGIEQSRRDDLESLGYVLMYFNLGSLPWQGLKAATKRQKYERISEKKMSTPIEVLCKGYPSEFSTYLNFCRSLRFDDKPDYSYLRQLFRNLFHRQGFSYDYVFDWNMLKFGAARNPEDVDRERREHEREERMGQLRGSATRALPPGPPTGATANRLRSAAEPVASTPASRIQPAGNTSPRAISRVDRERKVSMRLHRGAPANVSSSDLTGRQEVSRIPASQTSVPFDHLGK
Sequence of EGFR(L858R,T790M) (P00533 whole entry T790M/L858R): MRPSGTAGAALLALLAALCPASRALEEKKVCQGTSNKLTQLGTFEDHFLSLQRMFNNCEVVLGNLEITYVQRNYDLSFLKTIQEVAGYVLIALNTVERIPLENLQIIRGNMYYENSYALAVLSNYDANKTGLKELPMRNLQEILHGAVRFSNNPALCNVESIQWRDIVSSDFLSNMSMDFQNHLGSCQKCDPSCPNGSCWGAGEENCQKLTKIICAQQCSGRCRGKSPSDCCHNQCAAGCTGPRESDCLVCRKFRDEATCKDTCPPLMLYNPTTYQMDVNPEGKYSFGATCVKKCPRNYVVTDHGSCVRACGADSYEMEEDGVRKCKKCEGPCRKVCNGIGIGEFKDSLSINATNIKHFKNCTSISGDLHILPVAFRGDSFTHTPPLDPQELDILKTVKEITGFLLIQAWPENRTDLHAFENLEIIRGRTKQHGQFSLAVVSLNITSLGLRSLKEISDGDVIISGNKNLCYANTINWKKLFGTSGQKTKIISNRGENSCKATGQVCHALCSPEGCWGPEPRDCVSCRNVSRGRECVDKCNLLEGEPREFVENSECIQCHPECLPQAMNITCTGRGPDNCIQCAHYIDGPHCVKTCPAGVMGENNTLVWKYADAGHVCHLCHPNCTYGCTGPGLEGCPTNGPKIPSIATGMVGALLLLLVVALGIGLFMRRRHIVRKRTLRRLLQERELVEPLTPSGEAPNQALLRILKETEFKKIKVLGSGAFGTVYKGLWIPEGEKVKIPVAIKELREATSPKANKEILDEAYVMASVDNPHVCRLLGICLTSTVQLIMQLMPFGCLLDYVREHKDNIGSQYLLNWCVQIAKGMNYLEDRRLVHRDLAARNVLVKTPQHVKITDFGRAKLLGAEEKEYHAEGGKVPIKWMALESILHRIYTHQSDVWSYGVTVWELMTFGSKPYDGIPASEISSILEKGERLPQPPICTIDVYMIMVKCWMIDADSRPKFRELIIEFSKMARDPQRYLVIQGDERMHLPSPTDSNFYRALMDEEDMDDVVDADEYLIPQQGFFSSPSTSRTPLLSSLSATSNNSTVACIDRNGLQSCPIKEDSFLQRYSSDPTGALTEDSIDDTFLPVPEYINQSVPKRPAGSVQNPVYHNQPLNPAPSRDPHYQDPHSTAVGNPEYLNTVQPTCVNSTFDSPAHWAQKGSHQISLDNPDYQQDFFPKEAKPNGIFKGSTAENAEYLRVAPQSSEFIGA
Sequence of MYLK4 (Q86YV6 whole entry): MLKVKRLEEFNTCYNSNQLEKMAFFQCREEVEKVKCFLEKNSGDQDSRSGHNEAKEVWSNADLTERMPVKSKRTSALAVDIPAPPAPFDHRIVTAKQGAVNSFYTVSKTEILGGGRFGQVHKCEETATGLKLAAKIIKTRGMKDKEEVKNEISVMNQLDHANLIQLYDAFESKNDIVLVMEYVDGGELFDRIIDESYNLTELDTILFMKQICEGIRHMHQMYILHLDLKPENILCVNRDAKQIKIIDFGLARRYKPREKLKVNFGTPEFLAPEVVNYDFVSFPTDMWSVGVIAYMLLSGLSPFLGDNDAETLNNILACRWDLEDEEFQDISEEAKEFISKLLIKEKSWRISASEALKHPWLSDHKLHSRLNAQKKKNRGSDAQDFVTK
T5 sequence (Q07002 whole entry): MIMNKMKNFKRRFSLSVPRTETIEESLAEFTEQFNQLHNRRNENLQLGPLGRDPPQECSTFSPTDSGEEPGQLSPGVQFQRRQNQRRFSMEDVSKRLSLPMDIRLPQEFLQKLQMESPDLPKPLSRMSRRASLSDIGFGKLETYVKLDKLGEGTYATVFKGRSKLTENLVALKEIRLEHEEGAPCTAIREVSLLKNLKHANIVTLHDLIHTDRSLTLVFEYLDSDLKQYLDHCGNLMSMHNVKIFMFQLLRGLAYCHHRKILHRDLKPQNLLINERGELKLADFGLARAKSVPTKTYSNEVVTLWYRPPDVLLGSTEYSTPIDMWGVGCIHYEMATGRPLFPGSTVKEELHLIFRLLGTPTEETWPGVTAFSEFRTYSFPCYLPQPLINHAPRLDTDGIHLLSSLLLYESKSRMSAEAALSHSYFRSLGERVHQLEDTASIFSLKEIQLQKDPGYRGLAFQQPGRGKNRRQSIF

Regarding `O=C(/C=C/c1cnccc1-c1ccc(F)cc1)Nc1ccc(CCc2nnco2)cc1` [T-418, (2E)-3-(4-(4-fluorophenyl)pyridin-3-yl)-N-(4-(2-(1,3,4-oxadiazol-2-yl)ethyl)phenyl)acrylamide], the remaining binding at 0.3 µM is 100% on MEK2 (sheet T-418); 100% on BMX (sheet T-418); 83% in assay [1] (sheet T-418); 86% at JNK2 (sheet T-418); 98% at GSK3B (sheet T-418); 84% on PKNB(M.tuberculosis) (sheet T-418). For the same compound, the remaining binding at 0.3 µM on EGFR(L858R,T790M) (sheet T-418) worked out at 98%; at FYN (sheet T-418) it was 100%; on BTK (sheet T-418), 79%; on IKK-epsilon (sheet T-418) it was 100%; at ABL2 (sheet T-418), 90%; on MYLK4 (sheet T-418), 80%. The remaining binding at 0.3 µM on PCTK3 (sheet T-418) turned out to be 100%; at CSNK1E (sheet T-418) it was 89%; at MEK6 (sheet T-418) it was 99%; at DCAMKL2 (sheet T-418) it was 100%; at PIK3CG (sheet T-418) it was 100%; on IKK-alpha (sheet T-418) it was 100%. Also, the remaining binding at 0.3 µM on FLT1 (sheet T-418) is 100%; at TRPM6 (sheet T-418), 90%; on EPHA7 (sheet T-418) it was 96%; on MAP3K4 (sheet T-418), 68%.

On to `Cc1ncccc1Oc1sc(C(N)=O)c2c1-c1c(cnn1C)CC2` [T-474, 1-methyl-8-((2-methylpyridin-3-yl)oxy)-4,5-dihydro-1H-thieno[3,4-g]indazole-6-carboxamide], for which the remaining binding at 0.3 µM was determined as 100% on MEK2; 82% at BMX; 100% in assay [1]; 87% on JNK2; 94% on GSK3B; 75% on PKNB(M.tuberculosis). Moreover, the remaining binding at 0.3 µM on EGFR(L858R,T790M) was 85%; on FYN, 100%; at BTK, 81%; on IKK-epsilon it was 100%; on ABL2 it was 100%; at MYLK4, 90%. Further, the remaining binding at 0.3 µM on PCTK3 was found to be 100%; on CSNK1E it was 76%; on MEK6 it was 92%; at DCAMKL2 it was 100%; at PIK3CG it was 88%; on IKK-alpha, 100%. The remaining binding at 0.3 µM stood at 100% at FLT1, 95% on TRPM6, 94% at EPHA7 and 72% at MAP3K4.
